Experimental data reported in PubChem BioAssay (NCI).
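Dose response: 5 concentrations. Exposure: 48 h. Format: 96-well plates. Endpoint: linear interpolation; highest concentration if not reached. At the GI50, growth is halved. Definition used: TGI = concentration required for complete inhibition of growth.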

What was measured:
Test in all cases: growth of human tumour cells (NCI), 48 h
[1] = test system: 786-0 renal
[2] = test system: SR leukemia
[3] = test system: HCT-15 colon
[4] = test system: SK-OV-3 ovarian
[5] = test system: IGROV1 ovarian
[6] = test system: M14 melanoma
[7] = test system: CCRF-CEM leukemia
[8] = test system: RPMI-8226 leukemia
[9] = test system: OVCAR-5 ovarian
[10] = test system: SNB-75 CNS

SMILES | GI50 [1] | TGI [1] | GI50 [2] | TGI [2] | GI50 [3] | TGI [3] | GI50 [4] | TGI [4] | GI50 [5] | TGI [5] | GI50 [6] | TGI [6] | GI50 [7] | TGI [7] | GI50 [8] | TGI [8] | GI50 [9] | TGI [9] | GI50 [10] | TGI [10]
C/C(=N/O)c1cccc(Nc2cc(-n3nnc4ccccc43)nc3ccccc23)c1 | 4.84 µM | 31.3 µM | 15 µM | 35.2 µM | 11.4 µM | 32.8 µM | 30.5 µM | > 74.2 µM | 29.9 µM | > 73 µM | 7.48 µM | 20.3 µM | 3.98 µM | 18.6 µM | 3.07 µM | 14.4 µM | 22.5 µM | 84.9 µM | 35.6 µM | > 100 µM
O=C(/C=C/c1ccccc1)Oc1cccc2cccnc12 | – | > 100 µM | – | > 100 µM | – | 26.2 µM | – | > 100 µM | – | 32.4 µM | – | 14.8 µM | – | > 29.3 µM | – | > 100 µM | – | 80.6 µM | – | > 71 µM
C[C@@H](NC(C#N)c1ccco1)c1ccccc1 (stereo not given in full) | – | > 100 µM | – | > 100 µM | – | > 100 µM | – | > 100 µM | – | > 100 µM | – | > 100 µM | – | > 100 µM | – | > 100 µM | – | > 100 µM | – | > 100 µM
O=C1OCC2=C1C(c1cccc(F)c1)c1cc3c(cc1N2CCO)OCO3 (stereo not given) | 1.86 µM | > 50 µM | 0.294 µM | > 50 µM | 1.08 µM | > 50 µM | 1.73 µM | > 50 µM | 4.19 µM | > 50 µM | 0.357 µM | > 50 µM | 2.37 µM | > 50 µM | 2.28 µM | > 50 µM | 4.33 µM | > 50 µM | 0.82 µM | 2.8 µM
